Patent US20240299483A1, “TARGETS AND BIOMARKERS FOR TUMOR MICROENVIRONMENTS” (The Trustees of Indiana University, priority 2023, published 2024)

Key:
[1] = test system: lysosomal acid lipase (LAL); assay: Human leucocytes incubated with LAL inhibitor, MDSC subsets by flow cytometry; format: cell-based; conditions: leucocytes from healthy subjects, 10 μM, 24 hours
Procedure: Human leucocytes from healthy individuals were incubated with 10 μM Lalistat2, an LAL inhibitor (L) or DMSO (S) for 24 hours; control group (C) were not treated. After 24 hours, cells were analyzed by flow cytometry.
Human Blood Samples The blood donor characteristics of the human blood samples of normal subjects and non-small-cell lung cancer (NSCLC, at stage III-IV) patients is described in TABLE 8. NSCLC patients were selected by screening with Programmed death-ligand 1 (PD-L1) Tumor Proportion Score (TPS)≥10%. Both normal subjects and NSCLC patients include male and female, White and African American. To inhibit lysosomal acid lipase (LAL) activity, human blood cells from healthy participants had the red blood cells (RBCs) removed with lysis buffer acquired from Biolegend (San Diego, CA); washed with phosphate buffered saline (PBS) by centrifugation at 240×g for 5 minutes at room temperature; and then incubated with 10 μM LAL inhibitor Lalistat2, acquired from Cayman, Ann Arbor, MI) for 24 hours. As a control, human blood cells were incubated with dimethyl sulfoxide (DMSO).
For flow cytometry analysis of human blood samples, human blood cells had the RBCs removed, washed with PBS, and stained with APC-eFluor 780-conjugated anti-CD11b antibody (ICRF44, cat #47-0118-42), FITC-conjugated anti-CD13 (aminopeptidase N) antibody (WM15, cat #11-0138-42), PE-conjugated anti-CD14 antibody (61D3, cat #12-0149-42), APC-conjugated anti-CD15 (Lewis X) antibody (MMA, cat #17-0158-42), PE-conjugated anti-CD33 antibody (HIM3-4, cat #12-0339-42), PE-Cy7-conjugated anti-HLA-DR (major histocompatibility complex, class II) antibody (L243, cat #25-9952-42) (all acquired from eBioscience) at 4° C. for 15 minutes. Cells were then washed with PBS, fixed with 1% paraformaldehyde, and prepared for flow cytometry analysis. To analyze LAL levels, cells were further fixed and permeabilized using BD Cytofix/Cytoperm Fixation/Permeabilization Kit, cell fixation and permeabilization kit, and incubated with non-fluorescence conjugated anti-LAL antibody at 4° C. overnight. […]

[2] = test system: PD-L1; assay: PD-L1 expression in Ly6G+ cells after in vivo CPI-613 treatment, flow cytometry; design: species or system mice; conditions: 5 mg/kg on days 0, 2, 4, 7; day 8; PD-L1+ cells in Ly6G+CD11c+ cells
Procedure: FIG. 3J measures PD-L1^+ cells of Ly6G^+ CD11c^+ cells isolated from Lal^+/+ and Lal^−/− mice. Mice received 5 mg/kg CPI-613 on days 0, 2, 4, and 7. On day 8, the percentage of PD-L1^+ cells in Ly6G^+ CD11c^+ cells was measured by flow cytometry analysis.
(§1) Flow Cytometry Analysis For analyses of percentages of CD11b^+Ly6G^+ (integrin alpha M-positive/Ly6G positive) and Ly6G^+Ly6C^+ (Ly6G positive/lymphocyte antigen 6 C1-positive) cells, single cells harvested from the bone marrow of Lal^+/+ and Lal^−/− mice were stained with APC eFluor 780-conjugated, dye, anti-Ly6G antibody (1A8-Ly6g, cat #47-9668-82), FITC (fluorescein isothiocyanate)-conjugated anti-CD11b antibody (M1/70, cat #11-0112-82), and PE (phycocrythrin)-conjugated anti-Ly6C antibody (HK1.4, cat #12-5932-82) at 4° C. for 15 minutes. All antibodies were acquired from eBioscience, San Diego, CA. For analysis of PD-L1 expression in Ly6G^+ cells, cells were stained with APC eFluor 780-conjugated anti-Ly6G antibody, PE-conjugated anti-CD11c (integrin alpha X) antibody (N418, cat #12-0114-82) (acquired from eBioscience), and PE-Cy7 (cyanine 7)-conjugated anti-PD-L1 antibody (10F.9G2, cat #124314) (acquired from Biolegend) at 4° C. for 15 minutes. Cells were washed with PBS, then were ready for flow cytometry analysis.

[3] = test system: Ly6G^+ cells; assay: Reactive oxygen species (ROS) measurement in Ly6G+ cells by flow cytometry; format: cell-based, mice; conditions: CPI-613 treatment; versus Lal+/+ Ly6G+ cells
Procedure: (§2) Isolation of Bone Marrow Lymphocyte Antigen 6 Member G—Positive (Ly6G^+) Cell Ly6G^+ cells were isolated by magnetic bead sorting. For CPI-613 (also known as Devimistat; a pyruvate dehydrogenase inhibitor) treatment, freshly isolated Ly6G^+ cells were pre-treated with DMSO or 10 μM CPI-613 at 37° C. for 1 hour, and then co-cultured with Cluster of Differentiation 4 Protein-positive […] (CD4^+ T cells) or co-injected with B16 melanoma cells for further analysis.
Reactive Oxygen Species (ROS) Measurement The ROS level in Ly6G^+ cells was measured by flow cytometry as previously described. Ly6G^+ cells from Lal^+/+ and Lal^−/− mice with or without CPI-613 pre-treatment were collected and stained with APC eFluor 780-conjugated anti-Ly6G antibody, FITC-conjugated anti-CD11b antibody and 2 μmol/L 2′, 7′-dichlorofluorescein diacetate (acquired from Invitrogen, Carlsbad, CA) at 37° C. for 30 minutes. After PBS washing, the ROS level in Ly6G^+ cells was analyzed using an LSRII machine.
Small Interfering RNA Transfection Before transfection, Ly6G^+ cells were seeded into 96-well plates at a density of 1×10^6 cells/well. […]

[4] = test system: Lewis lung carcinoma (LLC) cells; assay: In vitro co-culture of Ly6G+ cells and LLC cells; format: cell-based, murine; conditions: Ly6G+ cells pre-treated 10 μM; co-culture 72 hours
Procedure: (§3) In Vitro Co-Culture of Ly6G^+ and Tumor Cells B16 melanoma or LLC cells were harvested, resuspended, and adjusted to density at 5×10^4 cells/mL. Isolated Ly6G^+ cells with or without 10 μM CPI-613 pre-treatment were prepared at the cell density of 5×10^6 cells/mL. One hundred microliter of Ly6G^+ cells and 100 μL of B16 melanoma/LLC cells were mixed, and seeded into a well of 96-well plates in DMEM supplemented with 10% FBS. Seventy-two hours later, unattached Ly6G^+ cells were removed by washing with PBS, and the number of attached B16 melanoma/LLC cells was counted. Morphologically, Ly6G^+ cells are much smaller than B16 melanoma/LLC cells for exclusion.
(§4) Small Interfering RNA Transfection Before transfection, Ly6G^+ cells were seeded into 96-well plates at a density of 1×10^6 cells/well. For small interfering RNA (siRNA)-mediated gene knockdown, 50 nmol/L of PDH siRNA (containing a mixture of three independent siRNAs targeting different regions of PDH) or control siRNA was transfected into Ly6G^+ cells with DharmaFECT Transfection Reagent I, chemical formulation for transfection, (acquired from Dharmacon) according to the manufacturer's protocol. After 24 hours of transfection, cells were harvested for further analysis.

[5] = test system: CD4^+ T cells; assay: T cell proliferation assay (CFSE-labeled CD4+ T cells co-cultured with pre-treated Ly6G+ cells); format: cell-based, mice; conditions: Ly6G+ cells pre-treated 10 μM, 1 hour; co-culture 4 days; DMSO control
Procedure: as §2
T cell Proliferation Assay CD4^+ T cells were isolated from the spleen and labeled with carboxyfluorescein succinimidyl ester (CFSE) as previously described. CFSE-labeled CD4^+ T cells were co-cultured with Ly6G^+ cells in 96-well plates pre-coated with anti-CD3 mAb (2 μg/mL) (145-2C11, cat #553057) and anti-CD28 mAb (5 μg/mL) (37.51, cat #553295) (acquired from BD Biosciences) at 37° C., 5% CO2, for 4 days. The ratio of Ly6G^+ cells to CD4^+ T cells was 1:5. Proliferation of CD4^+ T cells was evaluated as CFSE dilution by flow cytometry analysis.

[6] = test system: B16 melanoma cells; assay: In vitro co-culture of Ly6G+ cells and B16 melanoma cells; format: cell-based, murine; conditions: Ly6G+ cells pre-treated 10 μM; co-culture 72 hours
Procedure: as §3, §4

[7] = test system: CD11b^+Ly6G^+ cells; assay: CD11b+Ly6G+ population in bone marrow after CPI-613 injection, flow cytometry; format: in vivo; conditions: Lal−/− mice, 5 mg/kg on days 0, 2, 4, 7; measured day 8; DMSO control
Procedure: Mice received 5 mg/kg CPI-613 (PDH inhibitor) on days 0, 2, 4, and 7. On day 8, the CD11b^+Ly6G^+ population in the bone marrow was determined by flow cytometry. DMSO (dimethyl sulfoxide) was used as a control.
as §1

[8] = test system: B16 melanoma cells; assay: Subcutaneous co-injection of pre-treated Ly6G+ cells with B16 melanoma cells, tumor growth; format: in vivo; conditions: Ly6G+ cells pre-treated 10 μM 1 hour, co-injected with B16 melanoma cells into Lal+/+ recipient mice; tumor size at 10 days
Procedure: Subcutaneous Injection of Tumor Cells into Lal^+/+ Mice To study the effect of Ly6G^+ cells on tumor growth, isolated 1×10^6 Ly6G^+ cells from Lal^+/+ or Lal^−/− mice were pre-treated with DMSO or 10 μM CPI-613 for 1 hour, mixed with 2×10^5 B16 melanoma cells, and the cell mixture was injected subcutaneously at the flank region of Lal^+/+ recipient mice. The tumor growth was monitored twice a weck. The tumor volume (mm^3) was estimated by measuring the maximal length (L) and width (W) of a tumor and calculated using the formula: (length×width^2)/2. For tumor-bearing myeloid-derived suppressor cells (MDSCs) experiments, Lal^+/+ or Lal^−/− mice were injected with 1×10^6 B16 melanoma cells at flank sites on two sides. Fourteen days later, the mice were sacrificed. Tumor tissues were harvested, digested for single cell preparation, and stained for flow cytometry analysis of the CD11b^+Ly6G^+ cells.

## O=C(Oc1nsnc1N1CCCCC1)N1CCCCC1 [Lalistat2]
[1]
  induction of CD11b+CD15+HLA-DR− MDSC subset: did not reach statistical significance
  percentage of CD11b+CD13+HLA-DR− MDSC subset: increased
  percentage of CD11b+CD14+HLA-DR− MDSC subset: increased

## O=C(O)CCCCC(CCSCc1ccccc1)SCc1ccccc1 (stereo not shown) [CPI-613]
[2]
  PD-L1 expression in Lal−/− Ly6G+ cells: effectively reduced
[3]
  overproduction of ROS in Lal−/− CD11b+Ly6G+ cells: significantly reversed
[4]
  capability of Lal−/− Ly6G+ cells in promoting tumor cell proliferation, LLC: reduced capabilities
[5]
  Lal−/− Ly6G+ cells' suppressive activity on T cell proliferation: reversed
[6]
  capability of Lal−/− Ly6G+ cells in promoting tumor cell proliferation, B16 melanoma: reduced capabilities
[7]
  Lal−/− CD11b+Ly6G+ cells (percentage in bone marrow): reduced
[8]
  capability of Lal−/− Ly6G+ cells in stimulating tumor growth: reduced capabilities
